PubChem BioAssay (NCI)
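Each compound was tested at five concentrations against cells in 96-well plates for 48 hours. GI50 is the concentration that inhibits growth by half. TGI denotes the concentration required for complete inhibition of growth.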

Columns and labels:
Experiment in all cases: NCI-60 cell line screen, 48 h
[1] = system: HL-60(TB) leukemia
[2] = system: NCI-H522 lung
[3] = system: OVCAR-5 ovarian
[4] = system: NCI-H460 lung
[5] = system: UACC-62 melanoma
[6] = system: SK-MEL-5 melanoma
[7] = system: SK-MEL-2 melanoma
[8] = system: DU-145 prostate
[9] = system: MDA-MB-435
[10] = system: MDA-MB-231 breast

Structure (SMILES)	TGI [1] [µM]	TGI [2] [µM]	TGI [3] [µM]	TGI [4] [µM]	TGI [5] [µM]	TGI [6] [µM]	TGI [7] [µM]	TGI [8] [µM]	GI50 [1] [µM]	GI50 [3] [µM]	GI50 [4] [µM]	GI50 [8] [µM]	GI50 [9] [µM]	TGI [9] [µM]	GI50 [10] [µM]	TGI [10] [µM]	GI50 [5] [µM]	GI50 [6] [µM]	GI50 [7] [µM]	GI50 [2] [µM]
N#Cc1cc([N+](=O)[O-])ccc1NC(=O)C(=O)Nc1n[nH]c(N)n1	> 100	> 100	> 100	> 100	> 100	> 100	> 100													
C=CCOCCCCC(C(C)=O)C(=O)OC (stereo not drawn)	> 100	> 100	> 100	> 100	> 100	> 100	> 100	> 100												
CC(C)(C)C1C=C(Sc2ccccc2)C(=O)O1 (stereo not drawn)	55.7	87.8	> 100	> 100	> 100		> 100													
O=C1CCC2(c3ccc(F)cc3)Nc3cc(Cl)ccc3N12 (stereo not drawn)	> 100	> 100			> 100	> 100	> 100													
CC(C)C(=O)NC(=S)Nc1ccc([N+](=O)[O-])cc1C#N	> 100	> 100	> 100	> 100	> 100	> 100	> 100													
CCOC(=O)C1=C(OC(OCC)C(CC)[Se]c2ccccc2)CCCC1 (stereo not drawn)	47.8	28.4	67.7	> 100	62.9	35.8	43													
Cc1cc2c(cc1C)[n+](=O)c(C(=O)C/C(=N/NC(=O)CC#N)C(=O)Nc1ccccc1C(F)(F)F)c(C)n2[O-]	86	35.5	> 100	> 100	> 100		92.3													
CC1=CC(=Nc2ccc(N(CCCl)CCCl)cc2)C=C(C)C1=O	2.9		11.3	1.96	6.47	5.17	4.77	4.57	0.309	2.72	0.181	0.374	1.67	4.55	2.85	9.32	1.12	1.72	1.48	
C/C(CC(=O)Nc1cc(Cl)c(Cl)cc1Cl)=N\NC(N)=O	> 100	> 100	> 100		> 100	> 100	> 100													
O=C1CCC(=O)N2CCCCN12	> 100	> 100	> 100	> 100	> 100	> 100	> 100													
Cc1cccc(C)c1NC(=O)C(=O)C1C(=O)NC(=O)NC1=O	> 100	> 100	> 100	> 100	> 100	> 100														
COc1cc([N+](=O)[O-])cc2c3c(n(C)c12)[C@@]1(C)CCC2c4ccc(OCc5ccccc5)cc4CCC2C1C3 (stereo partly drawn)		> 100	> 100	> 100	> 100	> 100	> 100	> 100		> 100	90.1	> 100	> 100	> 100	62.6	> 100	> 100	78.9	> 100	53.6
COC12C=C(C)C(CC1)CC2C(=O)O (stereo not drawn)	> 100	> 100	> 100	> 100	> 100	> 100	> 100													
CS(=O)(=O)c1ccc([C@H]2O[C@@H](CO)C[C@]2(O)c2ccc(S(C)(=O)=O)cc2)cc1	> 100	> 100	> 100	> 100	> 100	> 100		> 100	> 100	> 100	> 100	> 100	> 100	> 100	> 100	> 100	> 100	> 100		> 100
CSC(C1c2ccccc2N(c2ccc(C)cc2)C2=NC(=O)N(C)C(=O)C21Cl)S(=O)(=O)c1ccc(C)cc1 (stereo not drawn)	12.6	31.9	83.2	64.8	52	32.3	38.9													
COc1ccc(/C=C/CN(C)CCc2ccccc2)cc1OC			> 100		> 100	> 100	> 100													
CCCCN=C(NC#N)NCCCC		> 100	> 100	> 100	> 100	> 100	> 100													
CCC[CH2][Sn]1([CH2]CCC)[O]Cc2nc(C)ccc2[O]1	4.64	2.5	24.8	31.1	4.57	25.9	8.8		1.58	12.3	16						2.06	13	3.32	1.19
NC(CCC(=O)NC(CSSCCCCS(=O)O)C(=O)NCC(=O)O)C(=O)O (stereo not drawn)		> 100	> 100	> 100	> 100	> 100	> 100													
COC(=O)C1Cc2c(n(Cc3ccccc3)c3ccccc23)C(CCC(=O)O)N1C(C)C (stereo not drawn)	> 100	> 100	> 100	> 100	> 100	> 100	> 100													
O=C1O[C@@H](c2ccc3c(c2)OCO3)C2C(=O)O[C@@H](c3ccc4c(c3)OCO4)C12 (stereo partly drawn)	> 100	> 100		> 100	> 100	> 100	> 100													
CCC[CH2][Sn]([CH2]CCC)([O]C(=O)c1cccnc1SC)[O]C(=O)c1cccnc1SC	1.05	0.133	3.17	3.47	2.04	2.56	1.39		0.16	1.76	1.66						0.791	1.27	0.311	0.0216
O=C1C2c3[nH]c4ccccc4c3C3CCCCCCC3C2C(=O)N1c1ccccc1 (stereo not drawn)				18.6	> 100	> 100														
CC(C)(CC(=O)Nc1ccccc1)C(=O)O	> 100		> 100	> 100	> 100	> 100	> 100	> 100						> 100		> 100				
O=C(O)C(CO)NC(=O)n1c2ccccc2c2ccccc21 (stereo not drawn)	> 100	> 100		> 100	> 100	> 100	> 100													
